Residue numbers refer to the chain shown, from its start.
How the values were obtained:
[1] = target: hTAS2R16 (human bitter taste receptor, type 2 taste receptor 16), wild type (human) (UniProt Q9NYV7)
[2] = target: hTAS2R16 (human bitter taste receptor, type 2 taste receptor 16), wild type (human) (UniProt Q9NYV7); remark: listed apart in the source
hTAS2R16 N96T (human) = hTAS2R16 N96T (human) (UniProt Q9NYV7)
hTAS2R16 P44T (human) = hTAS2R16 P44T (human) (UniProt Q9NYV7)
hTAS2R16 [3] = target: T1, hTAS2R16 (Homo sapiens, UniProt Q9NYV7); experiment: Cellular Ca2+ response, cell-based assay (Calcium-4, FlexStation III) in HEK293T cells co-expressing wild-type hTAS2R16 and G16αgust44; settings: for Maximal Response of salicin: Table 1
T1 construct: expressed in transfected cells; host or cells: HEK293T
T1 sequence (Q9NYV7 1-291): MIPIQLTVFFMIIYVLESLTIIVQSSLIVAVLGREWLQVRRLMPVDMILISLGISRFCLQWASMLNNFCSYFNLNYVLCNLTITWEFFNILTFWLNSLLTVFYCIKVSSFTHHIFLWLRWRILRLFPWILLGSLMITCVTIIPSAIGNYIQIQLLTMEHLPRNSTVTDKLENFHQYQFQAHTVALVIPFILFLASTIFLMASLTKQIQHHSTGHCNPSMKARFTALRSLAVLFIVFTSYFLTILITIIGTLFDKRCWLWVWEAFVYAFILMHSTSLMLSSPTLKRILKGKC
Description: (§1) HEK293T cells were purchased from American Type Culture Collection (ATCC; Manassas, VA, USA) and cultured as described previously. The plasmids hTAS2R16 and G16αgust44 were constructed as described previously. G16αgust44 and hTAS2R16 were cloned into a cytomegalovirus promoter-based vector and expressed constitutively. Point mutants of N96T and P44T on hTAS2R16 clone and DNA sequencings were performed by Macrogen (Geumcheon-gu, Seoul, Korea). The hTAS2R16 or point mutant expression plasmid was co-transfected with G16αgust44 expression plasmid (4:1) into HEK293T cells using Lipofectamine 2000 (Invitrogen, Carlsbad, CA, USA).
(§2) The umami substances-induced changes in the cytosolic Ca^2+ concentration were measured using a FlexStation III microplate reader (Molecular Devices, Sunnyvale, CA, USA). HEK293T cells transfected with hTAS2R16 were seeded onto 96-well black-wall CellBind surface plates (Corning, NY, USA) for 18–24 h before use. […] The cells were incubated in the dark for 30 min at 37 °C, and then for 15 min at 27 °C in assay buffer consisting of Calcium-4 (FLIPR Calcium 4 Assay Kit, Molecular Devices) and probenecid or the umami compounds. Following treatment, the fluorescence intensity (excitation, 486 nm; emission, 525 nm) of the cell was measured. The relative changes in cell Ca^2+ were plotted as ΔF/F0 on the y-axis, where ΔF is the change in Calcium-4 fluorescence intensity at each time point and F0 is the fluorescence intensity before treatment. The relative response induced by 10 mM salicin was assigned a value of 100.

hTAS2R16 N96T = target: T2, hTAS2R16 N96T (Homo sapiens, UniProt Q9NYV7, N96T); experiment: Cellular Ca2+ response, cell-based assay in HEK293T cells expressing probenecid-insensitive mutant hTAS2R16 N96T; settings: Table 3; pretreatment with sample 0.3 mM
T2 construct: expressed in transfected cells; host or cells: HEK293T
T2 sequence (Q9NYV7 1-291 N96T): T1 sequence (Q9NYV7 1-291) with N96T
Description: as §1, §2

hTAS2R16 P44T = target: T3, hTAS2R16 P44T (Homo sapiens, UniProt Q9NYV7, P44T); experiment: Cellular Ca2+ response, cell-based assay in HEK293T cells expressing probenecid-insensitive mutant hTAS2R16 P44T
T3 construct: expressed in transfected cells; host or cells: HEK293T
T3 sequence (Q9NYV7 1-291 P44T): T1 sequence (Q9NYV7 1-291) with P44T
Description: as §1, §2

hTAS2R16 [4] = target: T1, hTAS2R16; experiment: Ca2+ response of hTAS2R16-expressing HEK293T cells to bitter ligands in absence and presence of umami substances (Figure 1; fura-2 F340/F380 imaging / cell-based assay); settings: MSG 80 mM, IMP 20 mM, L-theanine 80 mM, Glu-Glu 6 mM, Gly-Gly 6 mM
Description: We first verified if non-peptide umami substances affect the downstream signaling mechanism, such as changes in intracellular Ca^2+ of the human bitter taste receptor. […] The increase in fluorescence intensity ratio (F340/F380) with 10 mM salicin was expressed as 100. […] In addition to salicin, hTAS2R16 also recognizes bitter sugars such as phenyl β-D-glucopyranoside and arbutin, a glycosylated hydroquinone extracted from the bearberry plant in the genus Arctostaphylos.
(A) Chemical structures of tested compounds. Summarized data (B) and representative traces (C) showing responses of HEK293T cells co-expressing hTAS2R16 and Gα16gust44 to 10 mM salicin in the absence and presence of umami substances in a cell-based assay. (D,E) Representative ratiometric images of fura-2-loaded hTAS2R16-expressing cells in response to the other ligands, 5 mM arbutin (D) or phenyl β-D-glucopyranoside (E), in the presence of umami substances. The data were normalized as percentages to the maximal signal obtained with the ligands. The color scale indicates the F340/F380 ratio. Scale bar: 11.04 μm. Data are presented as means ± standard error of the mean (SEM) of at least three separate experiments. * p < 0.05, ** p < 0.01, and *** p < 0.001 vs. the 0 mM sample group by Student’s t-test.
as §2, with “Following treatment, the fluorescence intensity (excitation, 486 nm; emission, 525 nm) of the cell was measured.” left out
Cells were seeded onto 96-well black-wall imaging plates (BD Falcon Labware) for 18–26 h prior to their use in an experiment. […] The cells were rinsed with the buffer, incubated in probenecid or sample for 30 min, and then treated with solution containing the ligand. The Fura-2AM-induced fluorescence intensity (excitation at 340 and 380 nm) was measured at emission wavelength of 510 nm using a computer-controlled filter changer (Lambda DG4; Sutter, San Rafael, CA, USA), an Andor Luca CCD camera (Andor Technology, Belfast, UK), and an inverted fluorescence microscope (IX-71; Olympus, Tokyo, Japan). Images were obtained at 3-s intervals and analyzed using MetaFluor software (Molecular Devices, Sunnyvale, CA, USA).

hTAS2R16 [5] = target: T1, hTAS2R16; settings: in the presence of 3 mM salicin; read-out: reported IC50; cited from earlier work
[6] = Table 3, pretreatment with sample 0.3 mM

Molecule | maximal Ca2+ response (ΔF/F0) to salicin (0-30 mM) in cells expressing hTAS2R16 with Glu-Glu at 0, 1, 3, 6 and 10 mM (0.54 at 0 mM); value at 10 mM Glu-Glu [1] | maximal Ca2+ response (ΔF/F0) to salicin in cells expressing wild-type hTAS2R16 after pretreatment with 6 mM Glu-Glu (0.54 without Glu-Glu) [2] | maximal Ca2+ response (ΔF/F0) to salicin in cells expressing hTAS2R16 N96T after pretreatment with 6 mM Glu-Glu (0.61 without Glu-Glu); the text says the inhibition by Glu-Glu is lost in this mutant (hTAS2R16 N96T (human)) | maximal Ca2+ response (ΔF/F0) to salicin in cells expressing hTAS2R16 P44T after pretreatment with 6 mM Glu-Glu (0.62 without Glu-Glu) (hTAS2R16 P44T (human)) | Maximal Response of salicin (hTAS2R16 [3]; pretreatment with sample 0.1 mM) | Maximal Response of salicin (hTAS2R16 [3]; pretreatment with sample 0.3 mM) | Maximal Response of salicin (hTAS2R16 [3]; pretreatment with sample 1 mM) | Maximal Response of salicin, WT (hTAS2R16 [3]; [6]) | mechanism of antagonism at hTAS2R16 (hTAS2R16 [3]; from salicin concentration–response curves at graded antagonist concentrations) | attenuation of salicin response by pretreatment, WT receptor (hTAS2R16 [3]; salicin 0.003–30 mM, probenecid 0.3 mM, L-theanine 80 mM) | Maximal Response of salicin, N96T (hTAS2R16 N96T) | Maximal Response of salicin, P44T (hTAS2R16 P44T; [6]) | attenuation of salicin response by pretreatment, P44T mutant (hTAS2R16 P44T; salicin 0.003–30 mM, probenecid 0.3 mM, MSG 80 mM, L-theanine 80 mM) | inhibition of Ca2+ response to arbutin (hTAS2R16 [4]; 5 mM arbutin) | inhibition of Ca2+ response to phenyl β-D-glucopyranoside (hTAS2R16 [4]; phenyl β-D-glucopyranoside) | IC50 (hTAS2R16 [5])
Glu-Glu (peptide) | 0.33 ΔF/F0 | 0.4 ΔF/F0 | 0.65 ΔF/F0 | 0.42 ΔF/F0 |  |  |  |  |  |  |  |  |  |  |  | 
CCCN(CCC)S(=O)(=O)c1ccc(C(=O)O)cc1 [Probenecid, ρ-(dipropylsulfamoyl)benzoic acid] |  |  |  |  | 0.47 ΔF/F0 | 0.23 ΔF/F0 | 0.07 ΔF/F0 | 0.23 ΔF/F0 | full insurmountable antagonism | significant attenuation | 0.68 ΔF/F0 | 0.58 ΔF/F0 | not in cells expressing the two mutants | inhibited | inhibited | 290 µM

Source: publication PMC7582725, “Suppression of hTAS2R16 Signaling by Umami Substances” (International Journal of Molecular Sciences, 2020)
